The source of these data is US20190192699A1, “NUCLEAR IMAGING AND RADIOTHERAPEUTICS AGENTS TARGETING CARBONIC ANHYDRASE IX AND USES THEREOF” (THE JOHNS HOPKINS UNIVERSITY, priority 2016, published 2019).

Assay [1] addresses T1, CAIX (Homo sapiens, UniProt Q16790). The experiment in a line: Competitive fluorescence polarization assay for [113/115In]XYIMSR-01. The assay is classed as binding. More on the design: purchased R&D Systems. An excerpt: (§1) General Procedures. Solvents and chemicals obtained from commercial sources were of analytical grade or better and used without further purification. Fmoc-protected azidolysine, HBTU, and N-α-fmoc-L-aspartic acid α-tert-butyl ester were purchased from Chem Impex International, Inc. (Wooddale, Ill.). Carrier-free [^111In]InCl3 was purchased from MDS Nordion (Ottawa, ON, Canada). DOTA-NHS-ester (1,4,7,10-tetraazacyclododecane-1,4,7,10-tetraacetic acid mono N-hydroxysuccinimide ester) was purchased from Macrocyclics, Inc. (Dallas, Tex.). Indium (III) nitrate, triethylsilane (Et3SiH), N,N-diisopropylethylamine (DIEA), triethylamine (TEA), piperidine, 4,4-bis(4-hydroxyphenyl)valeric acid, copper iodide (CuI), and tris[(1-benzyl-1H-1,2,3-triazol-4-yl)methyl]amine (TBTA) were purchased from Sigma-Aldrich (Saint Louis, Mo.). Pre-loaded O-bis-(aminoethyl)ethylene glycol on trityl resin was purchased from EMD Millipore (Billerica, Mass.). Flash chromatography was performed using MP SiliTech 32-63 D 60 Å silica gel purchased from Bodman (Aston, Pa.). Recombinant human CAIX was purchased from R&D Systems (Minneapolis, Minn.). 1H NMR spectra were recorded on a Bruker Ultrashield 500 MHz spectrometer. Chemical shifts (δ) were reported in ppm downfield by reference to proton resonances resulting from incomplete deuteration of the NMR solvent. ESI mass spectra were obtained on a Bruker Daltonics Esquire 3000 Plus spectrometer (Billerica, Mass.).
Competitive Fluorescence Polarization Assay for [^113/115In]XYIMSR-01. Fluorescence polarization (FP) experiments were performed in 21 μL of the assay buffer (12.5 mM Tris-HCl, pH 7.5, 75 mM NaCl) in black flat bottom 384-well microplates (Corning, Inc., New York, N.Y.) The FP reaction employed 100 nM of purified CAIX (R&D systems, Minneapolis, Minn.) and 80 nM FITC-labeled 8 (Wichert, et al., 2015) within the assay buffer. The FP values were measured as mP units using the Victor3 multi-label plate reader equipped with excitation (485 nm) and emission (535 nm) filters (Perkin Elmer, Waltham, Mass.). 100 nM CAIX was incubated with serially diluted (from 1 μM to 61 fM) concentrations of the three targeting molecules, 2, XYIMSR-01, and [^113/115In]XYIMSR-01 for 30 min at room temperature in 384-well plates. 80 nM 8 was added to each well and the reaction was incubated for 30 min at room temperature followed by FP measurement. Experiments were carried out in triplicate and the concentration resulting in 50% response (IC50) was calculated in GraphPad Prism 5 (GraphPad Software, La Jolla, Calif.) using the sigmoidal dose-response regression function.

For assay [2], the target named is T1, CAIX. The assay is described as follows: Competitive fluorescence polarization assay for [Al19F]XYIMSR-04, [63/65Cu]XYIMSR-06 and [175Lu]XYIMSR-01. The conditions noted are these: 100 nM CAIX, 80 nM FITC-labeled ligand; read-out: IC50, competitive fluorescence polarization (similar method). More on the design: purchased R&D Systems. The assay is classed as binding.
Description: as §1
Competitive Fluorescence Polarization Assay for [Al^19F]XYIMSR-04, [^63/65Cu]XYIMSR-06, and [^175Lu]XYIMSR-01. Fluorescence polarization (FP) experiments were performed in 21 μL of the assay buffer (12.5 mM Tris-HCl, pH 7.5, 75 mM NaCl) in transparent flat bottom 384 well Small Volume™ LoBase Microplates (Greiner Bio-One, Frickenhausen Germany). The FP reaction employed 100 nM of purified CAIX (R&D systems, Minneapolis, Minn.) and 80 nM FITC-labeled ligand within the assay buffer. The FP values were measured as mP units using the Safire2™ plate reader (Tecan, Morrisville, N.C.) with excitation at 475 nm and emission at 532 nm emission. 100 nM CAIX was incubated with serially diluted (from 8 μM to 488.2 fM) concentrations of the […] targeting molecules, 2, [Al^19F]XYIMSR-04, [^63/65Cu]XYIMSR-06 and [^175Lu]XYIMSR-01 for 30 min at room temperature in 384 well plates. 80 nM FITC-labeled ligand was added to each well and the reaction was incubated for 30 min at room temperature followed by FP measurements. Experiments were carried out in triplicate and the concentration resulting in 50% response (IC50) was calculated in GraphPad Prism 5 (GraphPad Software, La Jolla, Calif.) using the sigmoidal dose-response regression function.

Assay [3] addresses T1, CAIX. On the set-up: host or cells: ccRCC tumours in patients. As to conditions: Wichert et al., 2015; read-out: Kd for CAIX (known / reported); cited from earlier work.

On to `CC(CCC(=O)N[C@@H](CC(=O)N[C@@H](CC(=O)N[C@@H](CCCCn1cc(CCCC(=O)Nc2nnc(S(N)(=O)=O)s2)nn1)C(=O)NCCOCCOCCN)C(=O)O)C(=O)O)(c1ccc(O)cc1)c1ccc(O)cc1` [compound 3, N^4-((S)-1-((2-(2-(2-aminoethoxy)ethoxy)ethyl)amino)-1-oxo-6-(4-(4-oxo-4((5-sulfamoyl-1,3,4-thiadiazol-2-yl)amino)butyl)-1H-1,2,3-triazol-1-yl)hexan-2-yl)-N^2-((S)-3-(4,4-bis(4-hydroxyphenyl)pentanamido)-3-carboxypropanoyl)-L-asparagine, reference compound], for which the IC50 (usually the concentration needed to halve the response being measured) worked out at 75.9 nM on CAIX [1] (100 nM CAIX, 80 nM FITC-labeled 8, read-out: IC50, inhibition of fluorescence polarization of FITC labeled 8) and 63.6 ± 2.8 nM at CAIX [2]. The “binding affinity to CAIX (in words)” value on CAIX [1] (competitive fluorescence polarization) was “high binding affinity”. For the same compound, at CAIX [3], the Kd was 2.6 nM.
